Measured values reported in PMC7672604, “Design, Synthesis, Molecular Docking, Antiapoptotic and Caspase-3 Inhibition of New 1,2,3-Triazole/Bis-2(1H)-Quinolinone Hybrids” (Molecules, 2020).
Several values for one entry are separate records, joined by “and”; a condition that tells them apart may be missing. Equal entries are not always repeated.

Columns and labels:
[1] = tested on: testis of I/R rats; assay: Testicular histopathology (H&E, Cosentino's score, Johnson's scoring) in I/R rats; type: in vivo; details: for Histopathological/spermatogenesis scoring difference compared to the reference (NAC): Cosentino's score and Johnson's scoring, p-value < 0.005; for Histopathological finding in testis sections: H&E sections
Excerpt: Also, it decreased spermatogenesis when compared to the control group by using Johnson’s scoring system (Figure 9B).
The seminiferous tubules were seen lined with stratified testicular epithelium rested on basement membranes. […] Ruptured tubules and distorted Leydig cells and sloughed cells could be also observed (Figure 10B). […] Distorted Leydig cells with dilated blood vessels (BV) were frequently seen among the sections (Figure 12). […] Dilated blood vessels and the presence of amyloid substance were also found (Figure 13).
Multiple testicular specimens were stained by hematoxylin-eosin (ab245880, Abcam, Cambridge, MA, USA) using Cosentino’s score for semi-quantitation of pathological changes in different seminiferous tubules. By using Johnson’s scoring system, the effect of ischemia on the spermatogenesis can be studied (See Supporting Materials).
Semi-quantitative data were measured and counted per section in ten randomly selected non-overlapping fields using power × 400 magnifications of the sections from each rat. The results were carried out using the Image J program analysis software (Image J 1.48V, Maryland, MD, USA; Wayne Rasb and National Institutes of Health). […]
4. Histopathological Investigation
Multiple testicular specimens were fixed in Bouin's solution for about 24 hour, dehydrated in an alcohol grades, cleaned with xylene and then embedded in paraffin wax. Tissue sections (about six μm) were stained by haematoxylin–eosin (H&E) and were studied by an experienced histologist. In the current study, we used Cosentino's score for semi-quantitation of pathological changes on different seminiferous tubules in the whole groups by grading these tubules between one and four, and the mean scores were taken by dividing the totality to the whole number of testicular tubules .
By using Johnson’s scoring system, the effect of ischemia on the spermatogenesis can be studied.
The grades were counted one to ten, and the total scores were taken by dividing the totality to the whole number of testicular tubules.
4.2.Histopathological grading score (Cosentino's score)
I Normal testicular structure
II less orderly germinal cells with closely packed seminiferous tubules III Anarchic sloughed germinal cells, with less pyknotic nuclei size and less distinct seminiferous […]
IV Closely packed seminiferous tubules and coagulative necrosis
Note: Semi-quantitation of pathological changes on different seminiferous tubules in the whole groups by grading the tubules between 1 and 4, and the mean scores were obtained by dividing the totality to the whole number of testicular tubules.
4.3.Spermatogenesis grading; Score Morphological picture
10 Normal spermatogenesis
9 less defect in spermatogenesis with multiple late spermatids, little disorganized epithelium 8 Less than five spermatozoa/tubule, less late spermatids
7 Absence of spermatozoa, absent late spermatids, more early spermatids 6 No spermatozoa, absence of late spermatids with little early spermatids 5 No spermatozoa or spermatids, more spermatocytes
4 No spermatozoa or spermatids, fewer spermatocytes
2 No germinal cells, only Sertoli cells
1 No seminiferous epithelium
Note: By using Johnsen's scoring system, the effect of ischaemia on the spermatogenesis can be detected. The grades were from 1 to 10, and the total scores were taken by dividing to the whole number of testicular tubules.

[2] = tested on: cytochrome C; assay: Cytochrome C ELISA in SR human cell line; type: cell-based
Description: The 1,2,3-triazole/biquinolinone derivative 6c was evaluated for cytochrome C against the SR human cell line and the results are listed in Table 4.
Cells were collected from American Type Culture Collection to be grown in […] containing 10% fetal bovine serum at 37 °C, stimulated with the compounds to be tested for cytochrome C using Cytochrome C Human ELISA Kit (ab119521—Cytochrome C Human ELISA Kit, Vaccera institute, Egypt) (See Supplementary Materials). […]
• Equilibrate all materials and prepared reagents to room temperature prior to use.
• It is recommended to assay all standards, controls and samples in duplicate.
13.1. Prepare all reagents, working standards, and samples as directed in the previous sections.
Determine the number of microplate strips required to test the desired number of samples plus […]
appropriate number of wells needed for running blanks and standards. Predilute samples before […]
starting the test procedure with one-part sample to one-part 1X Assay Buffer.
13.2. Wash the microplate twice with approximately 400 μL 1X Wash Buffer per well with […]
thorough aspiration of microplate contents between washes. Allow the 1X Wash Buffer to remain in […]
Note: The color development on the plate should be monitored and the substrate reaction stopped […]
the stop solution when the highest standard has developed a dark blue color. Alternatively, the color development can be monitored by the ELISA reader at 620 nm. […]
Note: It is important that the Stop Solution is mixed quickly and uniformly throughout the microplate to completely inactivate the enzyme. Results must be read immediately after the Stop Solution is added or within one hour if the microplate strips are stored at 2 - 8°C in the dark.
13.15. Read absorbance of each microplate on a spectrophotometer using 450 nm as the primary wavelength (optionally 620 nm as the reference wavelength; 610 nm to 650 nm is acceptable).
Blank the plate reader according to the manufacturer's instructions by using the blank wells.
Determine the absorbance of both the samples and the standards. […]

Row | Compound | Histopathological/spermatogenesis scoring difference compared to the reference (NAC) [1] | Histopathological finding in testis sections [1] | Cyt C Conc [2] | Cyt C Fold Change ([2]; down-expression relative to control) [fold]
1 | Cc1ccc2[nH]c(=O)cc(OCc3cn(-c4cc(=O)[nH]c5ccc(C)cc45)nn3)c2c1 [6f, 6-Methyl-4-((1-(6-methyl-2-oxo-1,2-dihydroquinolin-4-yl)-1H-1,2,3-triazol-4-yl)meth-oxy)quinolin-2(1H)-one] | highly significant histopathological difference | ruptured seminiferous tubules with distorted Leydig cells |  | 
2 | COc1ccc2[nH]c(=O)cc(OCc3cn(-c4cc(=O)[nH]c5ccccc45)nn3)c2c1 [6g, 6-Methoxy-4-((1-(2-oxo-1,2-dihydroquinolin-4-yl)-1H-1,2,3-triazol-4-yl)methoxy)quinolin-2-(1H)-one] | weak significant differences | dilated seminiferous tubules |  | 
3 | CC(=O)N[C@@H](CS)C(=O)O [NAC, N-acetylcysteine, reference compound] |  | more or less normal seminiferous tubules and Leydig cells except some areas displayed distorted tubules and widening of inter-tubular spaces | 0.24 ± 0.019 ng/mL | 4.13
4 | Cc1ccc2[nH]c(=O)cc(OCc3cn(-c4cc(=O)[nH]c5ccccc45)nn3)c2c1 [6e, 6-Methyl-4-((1-(2-oxo-1,2-dihydroquinolin-4-yl)-1H-1,2,3-triazol-4-yl)methoxy)quinolin-2(1H)-one] | weak significant differences | dilated seminiferous tubules |  | 
5 | COc1ccc2[nH]c(=O)cc(-n3cc(COc4cc(=O)[nH]c5ccccc45)nn3)c2c1 [6c, 6-Methoxy-4-(4-(((2-oxo-1,2-dihydroquinolin-4-yl)oxy)methyl)-1H-1,2,3-triazol-1-yl)-quinolin-2(1H)-one] |  |  | 0.28 ng/mL and 0.28 ± 0.011 ng/mL | 
6 | Cn1c(=O)cc(-n2cc(COc3cc(=O)[nH]c4ccccc34)nn2)c2ccccc21 [6d, 1-Methyl-4-(4-(((2-oxo-1,2-dihydroquinolin-4-yl)oxy)methyl)-1H-1,2,3-triazol-1-yl)quinolin-2(1H)-one] | highly significant histopathological difference | ruptured seminiferous tubules with distorted Leydig cells |  | 
